Measured values reported in patent US20250127913A1, “BIFUNCTIONAL FOLATE RECEPTOR BINDING COMPOUNDS” (LYCIA THERAPEUTICS, INC., priority 2021, published 2025).

Columns and labels:
[1] = biological target: TNFα trimer (Homo sapiens, UniProt P01375); assay: SPR binding kinetics of compounds to TNFα trimer; conditions: class symbols
Protocol: Streptavidin 100 μg/mL Streptavidin (Invitrogen Cat #: 434302) diluted in 10 mM sodium acetate, pH 4.5) was immobilized to both the reference and active surfaces as described in Example 51. The surfaces were conditioned with three injections of running Buffer (10 mM HEPES, 150 mMNaCl, 0.05% T20, pH 7.5, 2% DMSO) at a flow rate of 10 μL/min, Contact time: 60 s. Flow rate: 10 μL/min. The active surface was treated with biotinylated linked TNFα trimer 20 μg/mL diluted in running buffer at a flow rate of 5 μL/min contact time: 600 s, yielding a final response of ˜3000 RU. Example compounds were then serially diluted 1:1 in running buffer (10 mM HEPES, 150 mM NaCl, 0.05% T20, pH 7.5, 2% DMSO) from 30 uM to 937.5 nM and flowed over the active and reference surfaces from lowest concentration to greatest concentration in the single-cycle kinetics format, and then allowed to dissociate in running buffer for 7200 s, at 30 μL/min. Sensorgrams were solvent corrected, double-referenced, and the data fitted and analyzed in Biacore Insight Evaluation Software Version 3.0.11.15423.

[2] = test system: THP-1 cells; assay: Compound mediated uptake of TNFα-pHrodo in THP-1 cells (flow cytometry); type: cell-based; set-up: key to Uptake in THP1 cells (run) 2 / Uptake in THP1 cells (run) 3 / Uptake in THP1 cells (run) 4: + = ΔMFI less than that of I-17; ++ = ΔMFI ≈ to that of I-17; +++ = ΔMFI greater than that of I-17; conditions: ΔMFI compared with I-17, uptake at 10 μM
Protocol: THP-1 cells, a monocytic leukemia cell line that endogenously express folate receptor beta, were used as a model system to measure example compound stimulated uptake of in-house produced TNFα conjugated to the pH sensitive fluorescent dye pHrodo green (ThermoFisher Scientific #P35369).
THP-1 cells were maintained in RPMI (Gibco #61870143) with 10% v/v FBS (VWR #89510-188) with 2 mM L-alanyl-L-glutamine dipeptide, 100 units/ml penicillin and 100 μg/ml streptomycin (Gibco #15140148). Cells were pelleted, resuspended in folate-free RPMI (Gibco #27016021) and seeded at 50,000 cells per well of a 96 well plate. Example compound was added to each well as a log 2 dilution series ranging from 20 μM to 125 nM final concentration. Cells were incubated for 24 hrs and washed/resuspended in phosphate buffered saline (pH 7.4) with 1% w/v BSA. Uptake was measured using a Novocyte Advanteon Flow Cytometer (Agilent Technologies) with the […] and FITC detection configuration.

[3] = biological target: TNFα (Homo sapiens (Human), UniProt P01375); assay: TNFα binding assay (time-resolved FRET, biotinylated TNFα); conditions: 1 nM biotinylated TNFα, 80 nM probe, 16 hr incubation; read-out: TNF-HTRF-biotin
TNFα, sequence (P01375 77-233): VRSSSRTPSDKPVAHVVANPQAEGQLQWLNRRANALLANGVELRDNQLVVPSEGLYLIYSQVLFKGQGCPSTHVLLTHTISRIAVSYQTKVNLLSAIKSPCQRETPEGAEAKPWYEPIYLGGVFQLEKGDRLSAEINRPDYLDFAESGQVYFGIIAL
Protocol: TNFα binding was measured in black 96-well plates using a time-resolved FRET assay using a previously described fluorescence acceptor TNFα probe (Xiao et al J. Med. Chem. 2020). Biotinylated TNFα was purchased from Acro Biosystems. Binding reactions were conducted in 20 mM Hepes (pH 7.5) 10 mM MgCl2 0.015% Tween-20 0.05 mg/ml BSA 2% DMSO with 1 nM TNFα 0.5 nM Streptavidin-Tb and 80 nM probe. Test compounds were resuspended in DMSO and 3-fold serial dilutions were made at 100× final concentrations. Fluorescence was measured using λex=340 nm, λem=490, 520 nm on an SpectraMax M5e plate reader (Molecular Devices) after 16 hr incubation time. Dose responses were conducted in duplicate and normalized to the response with DMSO (high) and 100 nM (R)-3-(1-((3-chloro-7-fluoro-6-(2-(2-hydroxypropan-2-yl)pyrimidin-5-yl)-2-methyl-1,5-naphthyridin-4-yl)amino)ethyl)-4-fluorobenzonitrile (low) on each plate. IC50 values were determined by fitting to 4-parameter curves in GraphPad Prism.

[4] = biological target: T1, folate receptor beta (Homo sapiens (Human), UniProt P14207); assay: Folate receptor binding assay (fluorescence polarization); conditions: 2.5 nM folate receptor beta, 2 nM FR-Cy probe, 2 hr incubation; read-out: FOLR2-FP
T1 sequence (P14207 17-255): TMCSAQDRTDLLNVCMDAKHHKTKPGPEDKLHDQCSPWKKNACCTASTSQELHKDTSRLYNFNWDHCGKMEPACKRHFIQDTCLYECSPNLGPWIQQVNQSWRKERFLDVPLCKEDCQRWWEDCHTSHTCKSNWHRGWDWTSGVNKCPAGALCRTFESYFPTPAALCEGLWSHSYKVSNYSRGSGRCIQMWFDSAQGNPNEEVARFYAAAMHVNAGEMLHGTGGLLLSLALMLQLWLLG
Protocol: Folate receptor binding was measured in black 96-well plates using a fluorescence polarization assay. A fluorescent probe consisting of a folate analog linked to Cy5 (FR-Cy) was custom synthesized.
Test compounds were resuspended in DMSO and 3-fold serial dilutions were made from 300-0.015 μM (100× final concentrations). Binding reactions were conducted in 200 μl final volume in 20 mM Hepes (pH 7.5) 250 mM NaCl 0.0150 Tween-20 1% DMSO with 2.5 nM folate receptor beta (Acro Biosystems) and 2 nM probe. Fluorescence polarization was measured using λex=620 nm, λem=688 nm on an Envision plate reader (Perkin Elmer) after 2 hr incubation time. Dose responses were conducted in duplicate and normalized to the response with DMSO (high) and 1 μM folic acid (low) on each plate. IC50 values were determined by fitting to 4-parameter curves in GraphPad Prism.

[5] = biological target: TNFα and streptavidin immobilized FOL2R (Homo sapiens (Human), UniProt P01375+P14207); assay: Ternary complex SPR assay; type: binding; conditions: 10 nM compound, max response normalized to expected response; for TC 150 nM- tagless TNF Normalized: 150 nM untagged TNF; for TC 300 nM- tagless TNF Normalized: 300 nM untagged TNF
TNFα and streptavidin immobilized FOL2R, sequence (P14207 17-230): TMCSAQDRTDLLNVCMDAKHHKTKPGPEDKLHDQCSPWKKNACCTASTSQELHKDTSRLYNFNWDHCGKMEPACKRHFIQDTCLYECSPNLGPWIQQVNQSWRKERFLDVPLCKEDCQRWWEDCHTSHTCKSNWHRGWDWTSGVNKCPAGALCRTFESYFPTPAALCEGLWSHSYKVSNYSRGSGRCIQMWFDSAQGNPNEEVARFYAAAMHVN
TNFα and streptavidin immobilized FOL2R, sequence (P01375 77-233): as the sequence (P01375 77-233) above
Protocol: Folate receptor-TNFα ternary complex SPR assays were conducted on a Biacore 8K instrument (Cytiva) using biotinylated folate receptor beta (Acro Biosystems). Folate receptor was immobilized at -1800 RU on a streptavidin chip (Cytiva) in 10 mM HEPES pH 7.5, 150 mM NaCl, 0.05% Tween 20. Untagged TNF was preincubated with 10 nM compound for 6 hr in 10 mM HEPES pH 7.5, 150 mM NaCl, 0.05 Tween 20, 2% DMSO at 25° C. Samples were then injected over the folate receptor surface at 30 μl/min with an association time of 110 s and a dissociation time of 600 s. Surfaces were regenerated with 4 M MgCl2 at 30 μl/mm for 30 s. The maximum measured response was normalized by comparison to the maximum expected response for each compound.

[6] = biological target: T1, folate receptor beta; assay: Folate receptor SPR assay (biotinylated folate receptor beta on streptavidin chip); type: binding; conditions: for Rmax: biotinylated folate receptor beta on streptavidin chip; for kd / Kd / kon: multi-cycle kinetics, 25° C., 1:1 model; for Kd: read-out: FOLR2Biotin - SPR Kd; for kon: pH 7.5, read-out: ka
Protocol: Folate receptor SPR binding assays were conducted on a Biacore 8K instrument (Cytiva) using biotinylated folate receptor beta (Acro Biosystems). Briefly, folate receptor was immobilized at -550 RU on a streptavidin chip (Cytiva) in 10 mM HEPES pH 7.5, 150 mM NaCl, 0.05% Tween 20. Multi-cycle kinetic studies were conducted with 8 compound concentrations using 2-fold dilutions in 10 mM HEPES pH 7.5, 150 mM NaCl, 0.05% Tween 20, 2% DMSO at 25° C. A flow rate or 75 μl/mmn with an association time of 120 s and a dissociation time of 600 s were used. Surfaces were regenerated with 4 M MgCl2 at 30 μl/min for 30 s. Data were fit to a 1:1 model to determine the reported binding parameters.

TNFα trimer, sequence (P01375 77-233 limits assumed): as the sequence (P01375 77-233) above

| Kd [1] | Structure (SMILES) | Uptake in THP1 cells (run) 2 ([2]; run 2) | Uptake in THP1 cells (run) 3 ([2]; run 3) | Uptake in THP1 cells (run) 4 ([2]; run 4) | IC50 [3] | IC50 [4] | TC 150 nM- tagless TNF Normalized [5] | TC 300 nM- tagless TNF Normalized [5] | Rmax [6] | kd [6] | Kd [6] | kon [6] | TC 60 nM taggless TNF normalized ([5]; 60 nM untagged TNF) |
| --- | --- | --- | --- | --- | --- | --- | --- | --- | --- | --- | --- | --- | --- |
| < 100 nM | Cc1nc2cc(F)c(-c3cnc(OCCCCCNC(=O)CC[C@H](NC(=O)c4ccc(NCc5cnc6nc(N)nc(O)c6n5)cc4)C(=O)O)nc3)nc2c(N[C@H](C)c2cc(C#N)ccc2F)c1Cl [Compound I-13, N2-(4-(((2-amino-4-hydroxypteridin-6-yl)methyl)amino)benzoyl)-N5-(5-((5-(7-chloro-8-(((R)-1-(5-cyano-2-fluorophenyl)ethyl)amino)-3-fluoro-6-methyl-1,5-naphthyridin-2-yl)pyrimidin-2-yl)oxy)pentyl)-L-glutamine] | + | ++ | ++ |  |  |  |  |  |  |  |  |  |
|  | Cc1nc2cc(F)c(-c3cnc(N4CCN(C(=O)COCCn5cc(CN(C)CCOCCOCCOCCNC(=O)CC[C@H](NC(=O)c6ccc(NCc7cnc8nc(N)nc(O)c8n7)cc6)C(=O)O)nn5)CC4)nc3)nc2c(N[C@H](C)c2cc(C#N)ccc2F)c1Cl [Compound I-94, (S)-18-(4-(((2-amino-4-hydroxypteridin-6-yl)methyl)amino)benzamido)-1-(1-(2-(2-(4-(5-(7-chloro-8-(((R)-1-(5-cyano-2-fluorophenyl)ethyl)amino)-3-fluoro-6-methyl-1,5-naphthyridin-2-yl)pyrimidin-2-yl)piperazin-1-yl)-2-oxoethoxy)ethyl)-1H-1,2,3-triazol-4-yl)-2-methyl-15-oxo-5,811-trioxa-2,14-diazanonadecan-19-oic acid] |  |  |  | 22 nM | 9.3 nM | 16.3% | 18.5% | 15.4 RU | 0.000169 s⁻¹ | 0.0194 nM | 8.72e+06 M⁻¹ s⁻¹ |  |
|  | Cc1nc2cc(F)c(-c3cnc(N4CCN(C(=O)COCCn5cc(COCCOCCOCCN6CCN(C(=O)CC[C@H](NC(=O)c7ccc(NCc8cnc9nc(N)nc(O)c9n8)cc7)C(=O)O)CC6)nn5)CC4)nc3)nc2c(N[C@H](C)c2cc(C#N)ccc2F)c1Cl [Compound I-95, (S)-2-(4-(((2-amino-4-hydroxypteridin-6-yl)methyl)amino)benzamido)-5-(4-(2-(2-(2-((1-(2-(2-(4-(5-(7-chloro-8-(((R)-1-(5-cyano-2-fluorophenyl)ethyl)amino)-3-fluoro-6-methyl-1,5-naphthyridin-2-yl)pyrimidin-2-yl)piperazin-1-yl)-2-oxoethoxy)ethyl)-1H-1,2,3-triazol-4-yl)methoxy)ethoxy)ethoxy)ethyl)piperazin-1-yl)-5-oxopentanoic acid] |  |  |  | 26 nM | 11 nM | 17.3% | 18.6% | 14.8 RU | 0.000337 s⁻¹ | 0.0215 nM | 1.56e+07 M⁻¹ s⁻¹ |  |
|  | Cc1nc2cc(F)c(-c3cnc(N4CCN(C(=O)COCCn5cc(COCCOCCOCCOCCNC(=O)CCCNC(=O)c6ccc(NCc7cnc8nc(N)nc(O)c8n7)cc6)nn5)CC4)nc3)nc2c(N[C@H](C)c2cc(C#N)ccc2F)c1Cl [Compound I-96, (R)-4-(((2-amino-4-hydroxypteridin-6-yl)methyl)amino)-N-(1-(1-(2-(2-(4-(5-(7-chloro-8-((1-(5-cyano-2-fluorophenyl)ethyl)amino)-3-fluoro-6-methyl-1,5-naphthyridin-2-yl)pyrimidin-2-yl)piperazin-1-yl)-2-oxoethoxy)ethyl)-1H-1,2,3-triazol-4-yl)-15-oxo-2,5,8,11-tetraoxa-14-azaoctadecan-18-yl)benzamide] |  |  |  | 56 nM | 20 nM | 17.1% | 19.2% | 17.1 RU | 0.00129 s⁻¹ | 0.101 nM | 1.27e+07 M⁻¹ s⁻¹ | 12.3% |
|  | Cc1nc2cc(F)c(-c3cnc(N4CCN(C(=O)COCCn5cc(COCCOCCOCCOCCNC(=O)CC[C@H](NC(=O)c6ccc(SCCc7cc8c(=O)[nH]c(N)nc8[nH]7)cc6)C(=O)O)nn5)CC4)nc3)nc2c(N[C@H](C)c2cc(C#N)ccc2F)c1Cl [Compound I-98, (S)-18-(4-((2-(2-amino-4-oxo-4,7-dihydro-3H-pyrrolo[2,3-d]pyrimidin-6-yl)ethyl)thio)benzamido)-1-(1-(2-(2-(4-(5-(7-chloro-8-(((R)-1-(5-cyano-2-fluorophenyl)ethyl)amino)-3-fluoro-6-methyl-1,5-naphthyridin-2-yl)pyrimidin-2-yl)piperazin-1-yl)-2-oxoethoxy)ethyl)-1H-1,2,3-triazol-4-yl)-15-oxo-2,5,8,11-tetraoxa-14-azanonadecan-19-oic acid] |  |  |  | 19 nM | 133 nM | 16.7% | 19.4% | 14.8 RU | 0.000774 s⁻¹ | 0.172 nM | 4.49e+06 M⁻¹ s⁻¹ |  |
